# Laboratory results as given in US20110275721A1, “METHOD FOR THE PURIFICATION OF SUBSTITUTED CYCLOPENT-2-EN-1-ONE CONGENERS AND SUBSTITUTED 1,3-CYCLOPENTADIONE CONGENERS FROM A COMPLEX MIXTURE USING COUNTERCURRENT SEPARATION” (Metaproteomics, LLC, priority 2008, published 2011).
# Assay: Shake-flask liquid distribution ratio (Kd), Hexane:Water:Buffer of 10:9:1
# Type: physicochemical
# Conditions: THIAA Aug. 5, 2008
# Experimental: Several shake-flask experiments were conducted to test several solvent systems and determine the liquid distribution ratio (Kd) and partition coefficient values for optimal separations. Partition coefficient values derived from shake-flask experiments are a reliable predictor of countercurrent chromatographic behavior. Kd is the concentration of the analyte in the upper phase divided by the concentration of the analyte in the lower phase and, in the alternative, may be listed as Ku/l.
# General Procedure and Parameters for Shake Flask Experiments: Addition of 1 mL of the stock buffer at a known pH. Addition of the other necessary solvents to make up the system. Addition of the analyte mixture dissolved in hexane at 400 mg/mL. Final analyte concentration in the shake flask is 0.1 mg/mL. The flask was capped and mixed (by a vortex mixer) for 10 seconds. An aliquot was taken from the upper phase for HPLC analysis, and additionally a separate aliquot was taken from the lower phase for HPLC analysis from each flask. Each component was analyzed by HPLC and integrated using Shimadzu Class VP Software version 7.3 SP1.
SMILES,K Value (pH 4.9),K Value (pH 5.5),K Value (pH 5.6),K Value (pH 6.0)
"CCC(C)C(=O)C1=C(O)[C@@](O)(C(=O)CCC(C)C)[C@H](CCC(C)C)C1=O (single isomer, unassigned; (+)) [TH 4]",55.6,16.1,11.0,5.5
"CC(C)CCC(=O)[C@]1(O)C(O)=C(C(=O)C(C)C)C(=O)[C@H]1CCC(C)C [TH 1, (+)-(4R,5S)-3,4-dihydroxy-2-isobutyryl-5-(3-methylbutyl)-4-(4-methylpentanoyl)cyclopent-2-en-1-one]",16.5,4.2,3.0,1.5
"CC(C)CCC(=O)[C@@]1(O)C(O)=C(C(=O)C(C)C)C(=O)[C@H]1CCC(C)C [TH 2, (−)-(4S,5S)-3,4-dihydroxy-2-isobutyryl-5-(3-methylbutyl)-4-(4-methylpentanoyl)cyclopent-2-en-1-one]",10.8,2.5,1.8,0.9
"CCC(C)C(=O)C1=C(O)C(O)(C(=O)CCC(C)C)C(CCC(C)C)C1=O (stereo not drawn) [TH 3, trans tetra ad-isoalpha acid]",60.3,17.8,11.4,5.5
"CC(C)CCC(=O)[C@]1(O)C(O)=C(C(=O)CC(C)C)C(=O)[C@H]1CCC(C)C [TH 5, (+)-(4R,5S)-3,4-dihydroxy-2-(3-methylbutanoyl)-5-(3-methylbutyl)-4-(4-methylpentanoyl)cyclopent-2-en-1-one]",32.8,9.5,6.6,3.3
